Experimental data as given in US11225470B2, “Tetrazolinone compounds and its use as pest control agents” (SUMITOMO CHEMICAL COMPANY, LIMITED, priority 2016, dated 2022).

Key:
[1] = tested on: cotton aphid (Aphis gossypii); test: cotton aphid test on cucumber seedling; format: in vivo; conditions: 144 h, 500 ppm spray on infested cucumber seedling, counted after 6 days, read-out: Controlling value (%)
[2] = tested on: cabbage moth (Plutella xylostella); test: cabbage moth mortality test on cabbage seedling; format: in vivo; conditions: 120 h, 500 ppm spray on cabbage seedling, five second instar larvae, counted after 5 days, read-out: Morality (%)
Source text: Any of the present compounds 1-4, 1-5, 1-6, 3-9, 3-13, 3-17, 3-23, 3-25, 3-26, 3-29, 3-31, 4-1 or 5-3, each of which was made to a formulation according to the similar method to that of Formulation Example 6, was mixed with water so as to be 500 ppm. The mixtures were sprayed to foliar parts of the cabbage seedling (on the developmental stage of the second to third true leaf) that was planted in a container so as to adhere adequately on the leaves of the above-mentioned cabbage. After the spraying, the stem and leaf of the seedling was cut out and then was installed into the container that was covered with the filter paper. Five heads of cabbage moth (Plutella xylostella) at the second instar larval stages were released into the cup. After 5 days, the surviving insects were counted, and the mortality of insects was calculated by the following equation. Morality (%)={1−the number of the surviving insects/5}×100

CCC(=NN=C(C)c1cc2ccccc2s1)OCc1c(C)cccc1-n1nnn(C)c1=O [1-3]
pest or weed control at 500 ppm [1]: ≥ 60%

CSC(=NCC1CCOCC1)SCc1c(C)cccc1-n1nnn(C)c1=O [3-23]
pest or weed control at 500 ppm [2]: ≥ 80%

CSC(=NCc1cccc(C)c1)SCc1c(C)cccc1-n1nnn(C)c1=O [3-11]
pest or weed control at 500 ppm [1]: ≥ 60%

CCC(=NN=C(C)c1cc2ccccc2n1C)OCc1c(C)cccc1-n1nnn(C)c1=O [D-6]
pest or weed control at 500 ppm [1]: ≥ 60%

CCC(=NN=C1COc2ccccc21)OCc1c(C)cccc1-n1nnn(C)c1=O [E-10]
pest or weed control at 500 ppm [1]: ≥ 60%

CCC(=NN=C(C)c1ccc2scnc2c1)OCc1c(C)cccc1-n1nnn(C)c1=O [D-3]
pest or weed control at 500 ppm [2]: ≥ 80%
pest or weed control at 500 ppm [1]: ≥ 60%

CCC(=NN=C1CCc2ccc(OC)cc21)OCc1c(C)cccc1-n1nnn(C)c1=O [E-8]
pest or weed control at 500 ppm [1]: ≥ 60%

CCC(=NN=C1CCc2cc(F)ccc21)OCc1c(C)cccc1-n1nnn(C)c1=O [E-3]
pest or weed control at 500 ppm [1]: ≥ 60%

CCC(=NN=C(C)c1ccn(C)n1)OCc1c(C)cccc1-n1nnn(C)c1=O [D-19]
pest or weed control at 500 ppm [2]: ≥ 80%

CCC(=NN=C1CCc2c(F)cccc21)OCc1c(C)cccc1-n1nnn(C)c1=O [E-2]
pest or weed control at 500 ppm [1]: ≥ 60%

CCc1ccc(N=C(SC)SCc2c(C)cccc2-n2nnn(C)c2=O)cc1 [3-8]
pest or weed control at 500 ppm [1]: ≥ 60%

CCC(=NN=C(C)c1c(C)nn(C)c1Cl)OCc1c(C)cccc1-n1nnn(C)c1=O [D-1]
pest or weed control at 500 ppm [2]: ≥ 80%
pest or weed control at 500 ppm [1]: ≥ 60%

CCC(=NN=C(C)C(C)=NOCc1ccc(OC)cc1)OCc1c(C)cccc1-n1nnn(C)c1=O [C-12]
pest or weed control at 500 ppm [2]: ≥ 80%
pest or weed control at 500 ppm [1]: ≥ 60%

CCSC(=NCCc1ccccc1)SCc1c(C)cccc1-n1nnn(C)c1=O [3-1]
pest or weed control at 500 ppm [1]: ≥ 60%

CSC(=NCc1ccccc1)SCc1c(C)cccc1-n1nnn(C)c1=O [3-9]
pest or weed control at 500 ppm [2]: ≥ 80%

CCC(=NN=C1CCOc2ccccc21)OCc1c(OC)cccc1-n1nnn(C)c1=O [E-12]
pest or weed control at 500 ppm [2]: ≥ 80%
pest or weed control at 500 ppm [1]: ≥ 60%

CCC(=NN=C1CCc2ccc(F)cc21)OCc1c(C)cccc1-n1nnn(C)c1=O [E-4]
pest or weed control at 500 ppm [1]: ≥ 60%

CCON=C(C)C(C)=NN=C(CC)OCc1c(C)cccc1-n1nnn(C)c1=O [A-2]
pest or weed control at 500 ppm [1]: ≥ 60%

CCC(=NN=C(C)C(C)=NOC(C)C)OCc1c(C)cccc1-n1nnn(C)c1=O [A-3]
pest or weed control at 500 ppm [2]: ≥ 80%
pest or weed control at 500 ppm [1]: ≥ 60%

CSC(=NCCc1cccc(F)c1)SCc1c(C)cccc1-n1nnn(C)c1=O [3-26]
pest or weed control at 500 ppm [2]: ≥ 80%

CC(=NN=C(OCc1c(C)cccc1-n1nnn(C)c1=O)N(C)C)c1ccc(F)cc1 [1-6]
pest or weed control at 500 ppm [2]: ≥ 80%

COc1ccccc1CN=C(SC)SCc1c(C)cccc1-n1nnn(C)c1=O [3-13]
pest or weed control at 500 ppm [2]: ≥ 80%

CCC(=NN=C1CCOc2ccccc21)OCc1c(Cl)cccc1-n1nnn(C)c1=O [E-13]
pest or weed control at 500 ppm [2]: ≥ 80%

CCC(=NN=C(C)C(C)=NOCc1ccccc1C)OCc1c(C)cccc1-n1nnn(C)c1=O [C-7]
pest or weed control at 500 ppm [1]: ≥ 60%

C#CCON=C(C)C(C)=NN=C(CC)OCc1c(C)cccc1-n1nnn(C)c1=O [C-5]
pest or weed control at 500 ppm [2]: ≥ 80%

CCC(=NN=C1CCSc2ccccc21)OCc1c(C)cccc1-n1nnn(C)c1=O [E-28]
pest or weed control at 500 ppm [2]: ≥ 80%
pest or weed control at 500 ppm [1]: ≥ 60%

CCC(=NN=C1CCOc2cccc(F)c21)OCc1c(C)cccc1-n1nnn(C)c1=O [E-21]
pest or weed control at 500 ppm [2]: ≥ 80%

CCC(=NN=C(C)c1ccc2c(ccn2C)c1)OCc1c(C)cccc1-n1nnn(C)c1=O [D-7]
pest or weed control at 500 ppm [1]: ≥ 60%

CCC(=NN=C(C)C(C)=NOCc1ccccc1)OCc1c(C)cccc1-n1nnn(C)c1=O [C-1]
pest or weed control at 500 ppm [2]: ≥ 80%
pest or weed control at 500 ppm [1]: ≥ 60%

CSC(=NC(C)(C)C)SCc1c(C)cccc1-n1nnn(C)c1=O [3-17]
pest or weed control at 500 ppm [2]: ≥ 80%

CSC(=NCCCCc1ccccc1)SCc1c(C)cccc1-n1nnn(C)c1=O [3-29]
pest or weed control at 500 ppm [2]: ≥ 80%
pest or weed control at 500 ppm [1]: ≥ 60%

CCC(=NN=C1CCOc2c(F)ccc(F)c21)OCc1c(C)cccc1-n1nnn(C)c1=O [E-27]
pest or weed control at 500 ppm [2]: ≥ 80%
pest or weed control at 500 ppm [1]: ≥ 60%

CCC(=NN=C1CCCc2ccccc21)OCc1c(C)cccc1-n1nnn(C)c1=O [E-25]
pest or weed control at 500 ppm [2]: ≥ 80%
pest or weed control at 500 ppm [1]: ≥ 60%

CCC(=NN=C(C)c1nc2ccccc2s1)OCc1c(C)cccc1-n1nnn(C)c1=O [1-5]
pest or weed control at 500 ppm [2]: ≥ 80%

CCC(=NN=C1CCc2cccc(F)c21)OCc1c(C)cccc1-n1nnn(C)c1=O [E-5]
pest or weed control at 500 ppm [2]: ≥ 80%

CCC(=NN=C(C)c1cnc2ccccc2c1)OCc1c(C)cccc1-n1nnn(C)c1=O [D-5]
pest or weed control at 500 ppm [2]: ≥ 80%
pest or weed control at 500 ppm [1]: ≥ 60%

CSC(=NCCc1ccccc1F)SCc1c(C)cccc1-n1nnn(C)c1=O [3-25]
pest or weed control at 500 ppm [2]: ≥ 80%

CCC(=NN=C1CCOc2cc(OC)ccc21)OCc1c(C)cccc1-n1nnn(C)c1=O [E-30]
pest or weed control at 500 ppm [2]: ≥ 80%
pest or weed control at 500 ppm [1]: ≥ 60%

C=CCON=C(C)C(C)=NN=C(CC)OCc1c(C)cccc1-n1nnn(C)c1=O [C-2]
pest or weed control at 500 ppm [2]: ≥ 80%
pest or weed control at 500 ppm [1]: ≥ 60%

CSC(=NCc1ccc(C)cc1)SCc1c(C)cccc1-n1nnn(C)c1=O [3-12]
pest or weed control at 500 ppm [1]: ≥ 60%

CC(=NOCc1c(C)cccc1-n1nnn(C)c1=O)OCCCc1ccccc1 [5-3]
pest or weed control at 500 ppm [2]: ≥ 80%
pest or weed control at 500 ppm [1]: ≥ 60%

CCC(=NN=C(C)c1ccc2c(c1)CCO2)OCc1c(C)cccc1-n1nnn(C)c1=O [D-2]
pest or weed control at 500 ppm [2]: ≥ 80%
pest or weed control at 500 ppm [1]: ≥ 60%

CCC(=NN=C1CCOc2ccc(C)cc21)OCc1c(C)cccc1-n1nnn(C)c1=O [E-26]
pest or weed control at 500 ppm [2]: ≥ 80%
pest or weed control at 500 ppm [1]: ≥ 60%

CCC(=NN=C(C)c1ccc2c(c1)OCO2)OCc1c(C)cccc1-n1nnn(C)c1=O [D-8]
pest or weed control at 500 ppm [2]: ≥ 80%
pest or weed control at 500 ppm [1]: ≥ 60%

CCC(=NN=C1CCOc2cc(F)cc(F)c21)OCc1c(C)cccc1-n1nnn(C)c1=O [E-24]
pest or weed control at 500 ppm [2]: ≥ 80%
pest or weed control at 500 ppm [1]: ≥ 60%

CCC(=NN=C(C)C(C)=NOCC#N)OCc1c(C)cccc1-n1nnn(C)c1=O [C-13]
pest or weed control at 500 ppm [2]: ≥ 80%

CCC(=NN=C(C)C(C)=NOCCOC)OCc1c(C)cccc1-n1nnn(C)c1=O [C-14]
pest or weed control at 500 ppm [2]: ≥ 80%
pest or weed control at 500 ppm [1]: ≥ 60%

CCC(=NN=C(C)c1cc2ccccc2o1)OCc1c(C)cccc1-n1nnn(C)c1=O [1-2]
pest or weed control at 500 ppm [1]: ≥ 60%

CCC(=NN=C1CCOc2ccccc21)OCc1c(C2CC2)cccc1-n1nnn(C)c1=O [E-14]
pest or weed control at 500 ppm [2]: ≥ 80%
pest or weed control at 500 ppm [1]: ≥ 60%

CSC(=Nc1ccc(F)cc1)SCc1c(C)cccc1-n1nnn(C)c1=O [4-6]
pest or weed control at 500 ppm [1]: ≥ 60%

CSC(=Nc1cccc(C(F)(F)F)c1)SCc1c(C)cccc1-n1nnn(C)c1=O [4-1]
pest or weed control at 500 ppm [2]: ≥ 80%

CCC(=NN=C(C)C(C)=NO)OCc1c(C)cccc1-n1nnn(C)c1=O [B-1]
pest or weed control at 500 ppm [2]: ≥ 80%

CSC(=NCCc1ccccc1Cl)SCc1c(C)cccc1-n1nnn(C)c1=O [3-31]
pest or weed control at 500 ppm [2]: ≥ 80%

CCC(=NN=C(C)c1cccc2c1OC(F)(F)O2)OCc1c(C)cccc1-n1nnn(C)c1=O [D-9]
pest or weed control at 500 ppm [1]: ≥ 60%

CCC(=NN=C1CCOc2ccccc21)OCc1c(C)cccc1-n1nnn(C)c1=O [E-11]
pest or weed control at 500 ppm [1]: ≥ 60%
